The text below walks through data of patent US5917056A (priority 1995, dated 1999).

One series has as its system HT-29 (Human colon). Put plainly: Cytotoxicity on tumour cell lines, HT-29 (Human colon). It counts as cell-based. Particulars: exposure time 72 h. The procedure:
(§1) Standard conditions: basal medium=RPMI 1640+20 mM HEPES+2 mM L-glutamine.

A further series relates to A121 (Human ovarian). As to the kind of experiment: Cytotoxicity on tumour cell lines, A121 (Human ovarian). It counts as cell-based. The note with it: exposure time 72 h. As to the method:
as §1

The subject of another series is MCF7 (Human breast). Put plainly: Cytotoxicity on tumour cell lines, MCF7 (Human breast). In kind it is cell-based. Particulars: exposure time 72 h. As to the method: as §1
The next series concerns L1210 (murine leukemia). As to the kind of experiment: Cytotoxicity on tumour cell lines, L1210 (murine leukemia). In kind it is cell-based. The note with it: Mus musculus, exposure time 72 h. As to the method: as §1
For series [1], the system named is tumours. Put plainly: cytotoxic and antitumour activity (statement in words).
The test system of another series is A549 (Human NSCLC). As to the kind of experiment: Cytotoxicity on tumour cell lines, A549 (Human NSCLC). In kind it is cell-based. The note with it: exposure time 72 h. The procedure: as §1
Series [2] can be described thus: adverse effects / tolerability (statement in words). Particulars: compared with paclitaxel / prior art.
The subject of series [3] is tumours. The note with it: background art, cited from earlier work.
In a further series the test system is MCF7-ADR (resistant). As to the kind of experiment: cells. It counts as cell-based. The note with it: Homo sapiens, NCI/ADR-RES, 72 h.
The conditions of series [4]: clinical use, background art; cited from earlier work.

In general, IC50 refers to the concentration at which inhibition is half-maximal. A low value points to greater potency. For `CC(=O)O[C@H]1C(=O)[C@@]2(C)[C@H]([C@H](OC(=O)c3ccccc3)[C@]34OC(=S)O[C@H]3[C@H](OC(=O)[C@H](O)[C@H](CC(C)C)NC(=O)OC(C)(C)C)C(C)=C1C4(C)C)[C@]1(OC(C)=O)CO[C@@H]1C[C@@H]2O` [Compound 5, 13-[(2R,3S)-3-tert-butoxycarbonyl-amino-2-hydroxy-3-isobutyl-propanoyl]-14β-hydroxybaccatine III 1,14-thiocarbonate], the IC50 was found to be 0.3 ± 0.1 nM in the series with HT-29 (Human colon); 0.8 ± 0.3 nM in the series with A121 (Human ovarian); 1.2 ± 0.2 nM in the series on MCF7 (Human breast); 0.5 ± 0.1 nM with L1210 (murine leukemia); 2.3 ± 0.3 nM with A549 (Human NSCLC). In addition, the “activity (in words)” value with tumours [1] is reported as “particularly active”.

`CC(=O)O[C@H]1C(=O)[C@@]2(C)[C@H]([C@H](OC(=O)c3ccccc3)[C@]34OC(=S)O[C@H]3[C@H](OC(=O)[C@H](O)[C@H](C=C(C)C)NC(=O)OC(C)(C)C)C(C)=C1C4(C)C)[C@]1(OC(C)=O)CO[C@@H]1C[C@@H]2O` [Compound 6, 13-[(2R,3S)-3-tert-butoxycarbonylamino-2-hydroxy-3-isobutenyl-propanoyl]-14β-hydroxybaccatine III 1,14-thiocarbonate]: the “activity (in words)” value with tumours [1] is recorded as “particularly active”.

As for `CCCCCC(=O)N[C@@H](C=C(C)C)[C@@H](O)C(=O)O[C@@H]1C(C)=C2[C@@H](OC(C)=O)C(=O)[C@@]3(C)[C@H]([C@H](OC(=O)c4ccccc4)[C@@]4(OS(=O)O[C@@H]14)C2(C)C)[C@]1(OC(C)=O)CO[C@@H]1C[C@@H]3O` (stereo partly drawn) [Compound 9, 13-[(2R,3S)-3-caproylamino-2-hydroxy-3-isobutenyl-propanoyl]-14β-hydroxybaccatine-III 1,14-sulfite], the drawbacks / tolerability entry in series [2] was “advantages compared with the compounds of the prior art in terms of both activity and tolerability”. The IC50 with HT-29 (Human colon) was found to be 0.5 ± 0.1 nM; in the series with A121 (Human ovarian), 1.1 ± 0.1 nM; with MCF7 (Human breast), 1 ± 0.3 nM; in the series with L1210 (murine leukemia), 1.8 ± 0.1 nM; in the series on A549 (Human NSCLC), 1.8 ± 0.2 nM. Also, the “activity (in words)” value with tumours [1] is “advantages compared with the compounds of the prior art in terms of both activity and tolerability”.

As for `CCCCCC(=O)N[C@@H](C=C(C)C)[C@@H](O)C(=O)O[C@@H]1C(C)=C2[C@@H](OC(C)=O)C(=O)[C@@]3(C)[C@H]([C@H](OC(=O)c4ccccc4)[C@@]4(OC(=N)O[C@@H]14)C2(C)C)[C@]1(OC(C)=O)CO[C@@H]1C[C@@H]3O` [Compound 8, 13-[(2R,3S)-3-caproylamino-2-hydroxy-3-isobutenyl-propanoyl]-14β-hydroxybaccatine III 1,14-iminocarbonate], the drawbacks / tolerability result in [2] is “advantages compared with the compounds of the prior art in terms of both activity and tolerability”. In addition, the IC50 in the series with HT-29 (Human colon) worked out at 0.5 ± 0.1 nM; in the series on A121 (Human ovarian), 1.9 ± 0.2 nM; in the series on MCF7 (Human breast) it was 0.8 ± 0.2 nM; with L1210 (murine leukemia), 2.4 ± 0.1 nM; in the series with A549 (Human NSCLC), 2.1 ± 0.3 nM. Further, the “activity (in words)” value with tumours [1] is “advantages compared with the compounds of the prior art in terms of both activity and tolerability”.

For `CC(=O)O[C@H]1C(=O)[C@@]2(C)[C@H]([C@H](OC(=O)c3ccccc3)[C@]3(O)C[C@H](OC(=O)[C@H](O)[C@@H](NC(=O)c4ccccc4)c4ccccc4)C(C)=C1C3(C)C)[C@]1(OC(C)=O)CO[C@@H]1C[C@@H]2O` [Paclitaxel, paclitaxel, reference compound], the induction of resistance entry in the series on tumours [3] is “induces resistance quickly”. The anticancerogenic activity entry with tumours [3] (different forms of human tumours) was “anticancerogenic activity on different forms of human tumours”. Moreover, the IC50 is 6.9 ± 0.4 nM in the series with HT-29 (Human colon); 4.7 ± 0.3 nM in the series on A121 (Human ovarian); 4.8 ± 0.1 nM with MCF7 (Human breast); 7.5 ± 2 nM in the series on L1210 (murine leukemia); 395 ± 8.7 nM in the series with MCF7-ADR (resistant); 5.7 ± 0.5 nM with A549 (Human NSCLC). Also, in [4], the clinical drawbacks result is “cardiotoxicity”.

As to `CCCCCC(=O)N[C@@H](C=C(C)C)[C@@H](O)C(=O)O[C@@H]1C(C)=C2[C@@H](OC(C)=O)C(=O)[C@@]3(C)[C@H]([C@H](OC(=O)c4ccccc4)[C@@]4(OC(=S)O[C@@H]14)C2(C)C)[C@]1(OC(C)=O)CO[C@@H]1C[C@@H]3O` [Compound 7, 13-[(2R,3S)-3-caproylamino-2-hydroxy-3-isobutenyl-propanoyl]-14β-hydroxybaccatine III 1,14-thiocarbonate III], the “activity (in words)” value in the series on tumours [1] is reported as “particularly active”.
